Test results taken from PubChem BioAssay AID1645867 (Buhrlage Lab, Dana-Farber Cancer Institute and Novartis …, 2021).
Calls of active or inactive are those of the source. No rule for the calls is given here.

Target: Ubiquitin carboxyl-terminal hydrolase isozyme L1 (Homo sapiens) (UniProt P09936)
Experiment: UCH-L1 deubiquitylase inhibitors, biochemical concentration-response, hit retest (AID 1645867)
Conditions: recombinant UCHL1 deubiquitinase activity assay

Ubiquitin carboxyl-terminal hydrolase isozyme L1 (Homo sapiens), sequence (P09936 whole entry, looked up): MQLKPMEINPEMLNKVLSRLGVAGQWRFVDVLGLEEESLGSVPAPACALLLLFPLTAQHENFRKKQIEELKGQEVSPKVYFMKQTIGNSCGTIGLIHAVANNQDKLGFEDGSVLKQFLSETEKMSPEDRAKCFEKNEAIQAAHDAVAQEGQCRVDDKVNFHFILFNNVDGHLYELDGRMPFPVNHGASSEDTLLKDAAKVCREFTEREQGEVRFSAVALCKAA

SMILES | IC50
Cn1c(CNS(=O)(=O)c2ccc(Br)cc2)nnc1SCc1ccc(Cl)c(Cl)c1 | > 25 µM (inactive)
Cc1ccc(C2SCC(=O)Nc3c2c(=O)[nH]n3C2CCCCC2)cc1 (stereo not given) | > 25 µM (inactive)
O=C(COc1ccc(N2CC(C(=O)NCc3ccccc3)CC2=O)cc1)Nc1ccc(F)cc1 (stereo not given) | > 25 µM (inactive)
Cc1nn(-c2ccccc2)c2c1N=C1C(Cl)=CC(Cl)=CN1C21C(=O)Nc2ccccc21 (stereo not given) | 3.72 µM
Nc1cccc(C(=O)CC2(O)C(=O)N(Cc3ccc(Cl)cc3)c3ccccc32)c1 (stereo not given) | > 25 µM (inactive)
O=S1(=O)CCN(CC2CCCO2)c2c(Oc3ccccc3)nc(F)c(Cl)c21 (stereo not given) | > 25 µM (inactive)
Cc1ccc(/C=C/C(=O)c2oc3ccc(F)cc3c2C)cc1 | > 25 µM (inactive)
O=C(CSc1cn(Cc2ccccc2Cl)c2ccccc12)N1CCOCC1 | > 25 µM (inactive)
CCc1ccc(S(=O)(=O)c2cn(CC(=O)Nc3ccccc3)c3ccccc3c2=O)cc1 | > 25 µM (inactive)
O=C(CCCCn1c(=O)[nH]c2ccccc2c1=O)Nc1cccc(Cl)c1 | > 25 µM (inactive)
Cc1nc(-c2ccccn2)sc1C(=O)/C=C/c1ccccc1 | > 25 µM (inactive)
COc1cccc(-n2cnc3cc(C(=O)NCCc4ccccc4)ccc3c2=O)c1 | > 25 µM (inactive)
CCOc1ccc(C2/C(=C(\O)c3ccccc3)C(=O)C(=O)N2c2nc3ccc(F)cc3s2)cc1 (stereo not given) | > 25 µM (inactive)
CCC1OC(O)(C(C)C(O)C(C)C2OC(=O)/C(C)=C/C(C)=CC(C)C(O)C(C)C/C(C)=C/C=C/C2OC)CC(OC(=O)/C=C/C(=O)NC2=C(O)CCC2=O)C1C (stereo not given) | > 25 µM (inactive)
CCc1ccc(-n2c(C)cc(/C=C3\C(=N)N4N=CSC4=NC3=O)c2C)cc1 | > 25 µM (inactive)
COc1cc(O)c2c(O)c3c(cc2c1)CC(C)OC3=O (stereo not given) | > 25 µM (inactive)
O=C(c1cncs1)N1CCc2[nH]nc(Nc3ccccc3)c2C1 | > 25 µM (inactive)
COc1ccc(CC(=O)Nc2c(NCc3ccccc3)c3ccccc3oc2=O)cc1 | > 25 µM (inactive)

SMILES | IC50
O=C(CN1CCOCC1)Nc1ccc(NC(=O)c2ccc(Cl)cc2)cc1 | > 25 µM (inactive)
O=C(O)C1C(C(=O)Nc2ccccc2)C2(c3ccccc3)C(=O)C1(c1ccccc1)C(c1ccccc1)=C2c1ccccc1 (stereo not given) | > 25 µM (inactive)
COc1ccc(OC)c(-c2cn3ccn(-c4ccc(F)c(Cl)c4)c(=O)c3n2)c1 | > 25 µM (inactive)
Nc1ccc(F)c(NS(=O)(=O)c2ccccc2)c1 | > 25 µM (inactive)
O=C1NC[C@@H](CCC(=O)N2CCCC2)N2C[C@@H](NCc3ccccc3)C[C@@H]12 | > 25 µM (inactive)
Cc1cc(Nc2ncc(Cl)cc2Cl)n(-c2ccccc2)n1 | > 25 µM (inactive)
CC(=O)O[C@@H]1C(=O)C2=C(C(=O)C[C@H]3C(C)(C)C(=O)CC[C@]23C)[C@]2(C)C(=O)C[C@H]([C@H](C)CC(=O)C[C@@H](C)C(=O)O)[C@@]12C | > 25 µM (inactive)
O=C(c1ccccc1F)c1cc(Cl)ccc1NC(=O)C1CCCO1 (stereo not given) | > 25 µM (inactive)
c1ccc(-n2nnc(-c3noc(-c4ccc[nH]4)n3)c2-c2ccncc2)cc1 | > 25 µM (inactive)
Cc1ccccc1NC(=O)Cn1c(=O)n(-c2ccc(CC(=O)NCCc3ccccc3)cc2)c(=O)c2sccc21 | > 25 µM (inactive)
COc1ccc(CNC(=O)Nc2cccc3ccccc23)cc1 | > 25 µM (inactive)
O=C(Nc1cccc(F)c1)N1C[C@@H]2c3nccn3-c3ccccc3[C@@H]2C1 | > 25 µM (inactive)
O=C(Cc1c[nH]c2ccccc12)N1CCc2cc(-c3ccno3)ccc21 | > 25 µM (inactive)
Cn1c(=O)c(N2CCOCC2)nc2c(OCc3ccccc3)nc(N)nc21 | > 25 µM (inactive)
COc1ccc(-c2cnn(-c3ccc(NC(=O)Nc4cccc(C(F)(F)F)c4)cc3)c2)cc1 | > 25 µM (inactive)
Cc1ccc(Cn2c(=O)c(C#N)c3n(c2=O)CCC3)cc1 | > 25 µM (inactive)
O=C(/C=C/c1ccc(Cl)cc1)N(Cc1ccccc1)C1CCS(=O)(=O)C1 (stereo not given) | > 25 µM (inactive)
